Data from patent US12729225B2, “Non-canonical SWI/SNF complex and uses thereof” (Dana-Farber Cancer Institute, Inc., priority 2018, dated 2026).
Several values for one entry are separate records, joined by “and”; a condition that tells them apart may be missing. Equal entries are not always repeated. Entries after “also recorded” stand apart in the source; their conditions may differ.

Tests used:
MOLM-13 cells = assay: RNA-seq gene expression in MOLM-13 cells; type: cell-based, human; conditions: MOLM-13 (BAF-intact), 6 days of dBRD9
Experimental: (§1) RNA was collected from 2 million cells per condition, in biological duplicate, using the RNeasy® Mini Kit (QIAGEN) according to manufacturer's protocol.
(§2) Library preparation and sequencing of ChIP DNA and RNA was performed by the Molecular Biology Core Facilities at the Dana-Farber Cancer Institute (75 bp single end on Illuminia Nextseq 500).
(§3) RNA-seq data reads were mapped using default parameters to hg19 using STAR (Dobin, et al. (2013) Bioinformatics 29:15-21) version 2.5.2a.
(§4) RPKM values were calculated using GFOLD version 1.1.4 (Feng et al. (2012) Bioinformatics 28:2782-2788). Unless otherwise noted, log 2 fold change and Bonferri-corrected p values were generated using DESEQ2 v1.16.1, with reads mapped using RSUBREAD (Liao et al. (2013) Nucleic Acids Res. 41:e108) v1.26.1. […] All RNA-seq experiments were performed in biological replicate. Quality control metrics are available in Table 7.

[1] = system: CRL7250 human fibroblast cells; assay: RNA-seq of SS18-SSX-mediated gene activation in CRL7250 fibroblasts; type: cell-based; conditions: CRL7250 fibroblasts expressing V5-SS18-SSX1, with dBRD9
Experimental: as §1, §2, §3, §4
(§5) The input for Gene Set Enrichment Analysis (GSEA) (Subramanian et al. (2005) Proc. Nat. Acad. Sci. U.S.A 102:15545-15550) was created by calculating the log 2 fold change between the mean RPKM of the replicates in each condition+1. […] GSEA Preranked was run over these files with default settings.

SMARCA4 [2] = assay: ChIP-seq SMARCA4 occupancy in MOLM-13 cells; type: cell-based, human; conditions: MOLM13 (BAF-intact), dBRD9
Experimental: (§6) Cells were fixed in 1% formaldehyde (Sigma Aldrich, F8775) for 10 min at 37° C. and quenched with 125 mM glycine for 5 min at 37° C. Cells were subsequently washed with cold PBS and stored at −80° C. until use. 10M cells per ChTP were used for EoL-1, MOLM-13, and Jurkat cell lines, and 5M cells per ChIP were used for SYO-1 and TTC1240 cell lines. Nuclei were extracted and chromatin was sonicated using the adaptive focused acoustics technology with a Covaris sonicator. Sonicated chromatin was used in immunoprecipitation reactions with indicated antibodies (Table 5) overnight followed by capture using Protein G Dynabeads (Thermo Fisher). For ChIP-seq using spike-in chromatin, 15 ng of spike-in Drosophila chromatin (Active Motif, cat #530830) was added to each sample with 2 μg of spike-in antibody (Active Motif, cat #61686). […]
(§7) For alignment of ChIP-seq data, Bowtie2, version 2.1.0 (Langmead & Salzberg (2012) Nat. Methods 9:357-359) was used to map reads to the hg19 human reference genome, using the parameter −k l.
MACS2 (Zhang et al. (2008) Genome Biol. 9:R137) version 2.1.0 was used to call peaks against input with a cutoff of q=0.001. […] For TTC1240 SMARCA4 tracks shown, the bedGraph file values were multiplied by the spike-in normalization ratios calculated as described above.

[3] = system: TTC1240 malignant rhabdoid tumor cells; assay: Proliferation curves (cell counts) in TTC1240 cells; type: cell-based, human; conditions: for Proliferation curve data for FIG. 6H (TTC1240): three replicates
Experimental: (§8) HEK-293T, G401, TTC1240, ESX, IMR-90, BJ Fibroblast, CRL7250, and NCIH-1437 cells were grown in DMEM (Gibco®) supplemented with 10% FBS, 1% GlutaMAX™ (Gibco®), and 1% penicillin-streptomycin (Gibco®). ES-2 cells were grown in McCoy's 5A (Gibco®) supplemented with 10% FBS, 1% GlutaMA™ (Gibco®), and 1% penicillin-streptomycin (Gibco®). EoL-1 and MOLM-13 were grown in RPMI (Gibco) supplemented with 10% FBS, 1% GlutaMAX™ (Gibco®), and 1% penicillin-streptomycin (Gibco®). RD were cultured in DMEM (Gibco®) supplemented with 10% FBS. HCT116 were grown in McCoy's 5A (Gibco®) supplemented with 10% FBS. Calu-6 were grown in EMEM (ATCC® 30-2003) supplemented with 10% FBS. SYO-1 was grown in DMEM without sodium pyruvate (Gibco®) supplemented with 10% FBS, 1% GlutaMAX™ (Gibco®), and 1% penicillin-streptomycin (Gibco®).
(§9) 25,000-40,000 cells were plated per well of 12 well plates, or 50,000-60,000 per 10 cm plate, depending on cell line. Cell counts were performed in biological triplicate using a Vi-CELL™ XR Cell Counter (Beckman Coulter) on days indicated.

G401 MRT cells = assay: Proliferation curves (cell counts) in G401 cells; type: cell-based, human; conditions: for Proliferation curve data for FIG. 5K (G401): three replicates
Experimental: as §8, §9

[4] = system: SYO-1 synovial sarcoma cells; assay: Proliferation curves (cell counts, Vi-CELL XR) in SYO-1 cells; type: cell-based, human; conditions: for cell count: three replicates
Experimental: as §8
ShRNA or gene delivery vectors, psPAX2, and pMD2.g were transfected into […] cells at a ratio of 4:3:1 using PEI (Polysciences, Inc.). Media was filtered through 0.4 micron filters 72 h post transfection and lentiviral particles were concentrated at 20,000 rpm for 2.5 h at 4° C. Lentiviral particles were resuspended in 200 μl PBS and cells were transduced using 1:1000 polybrene (Santa Cruz Biotechnology, cat. sc-134220). Two days post-infection, cells were selected with 2 μg/mL puromycin or 10 μg/mL blasticidin.
as §9

SMARCA4 [5] = assay: ChIP-seq SMARCA4 occupancy in TTC1240 cells (spike-in normalized, DiffBind); type: cell-based, human; conditions: TTC1240, dBRD9 250 nM vs DMSO
Experimental: as §6, with “Fisher).” for “Fisher). For ChIP-seq using spike-in chromatin, 15 ng of spike-in Drosophila chromatin (Active Motif, cat #530830) was added to each sample with 2 μg of spike-in antibody (Active Motif, cat #61686).”
as §7
For spike-in normalization, Drosophila DNA was aligned to the dm3 genome using Bowtie2 version 2.1.0 with the parameter −k l. Duplicated reads were removed using samtools rmdup with the −b option. (SAMtools v1.3.1) As per manufacturer instructions, normalization ratios were calculated using the ratio of the total number of non-redundant mapped reads in each sample in comparison to the sample with the fewest non-redundant mapped reads. […]

[6] = system: SYO-1 synovial sarcoma cells; assay: RNA-seq gene expression profiling in SYO-1 cells; type: cell-based, human; conditions: SYO-1, dBRD9 (6 day)
Experimental: as §1, §2, §3, §4, §5

[7] = system: TTC1240 malignant rhabdoid tumor cells; assay: RNA-seq gene expression in TTC1240 cells; type: cell-based, human; conditions: TTC1240, 7 days of 250 nM dBRD9
Experimental: as §1, §2, §3, §4
Genes associated with MRT superenhancers were downloaded from Chun et al. (Chun et al. (2016) Cancer Cell 29:394-406). Differential expression files of genes between MRT and normal tissues were downloaded from Chun et al., genes that were overexpressed in MRT with Bonferroni-adjusted p-value<0.01 were considered overexpressed in MRT.

[8] = system: ESX epithelioid sarcoma (SMARCB1-intact) cells; assay: Proliferation curves (cell counts) in ESX cells; type: cell-based, human; conditions: dBRD9 250 nM vs DMSO
Experimental: as §8, §9

## COc1cc(-c2cn(C)c(=O)c3cnccc23)cc(OC)c1CN(C)CC(=O)NCCOCCOCCNc1cccc2c1C(=O)N(C1CCC(=O)NC1=O)C2=O (centres unmarked) [dBRD9, 2-((2,6-dimethoxy-4-(2-methyl-1-oxo-1,2-dihydro-2,7-naphthyridin-4-yl)benzyl)(methyl)amino)-N-(2-(2-(2-((2-(2,6-dioxopiperidin-3-yl)-1,3-dioxoisoindolin-4-yl)amino)ethoxy)ethoxy)ethyl) acetamide]
MOLM-13 cells
  preferential downregulation of genes enriched for dependencies (CERES): did not result in preferential downregulation
[1]
  SS18-SSX-mediated gene activation: did not attenuate
SMARCA4 [2]
  loss in SMARCA4 occupancy (ChIP-seq): did not exhibit similar loss
[3]; Day 1, first block
  Proliferation curve data for FIG. 6H (TTC1240): 0.01352 and 0.01738 and 0.01416
[3]; Day 1, second block
  Proliferation curve data for FIG. 6H (TTC1240): 0.05469 (2×) and 0.03282
[3]; Day 3, first block
  Proliferation curve data for FIG. 6H (TTC1240): 0.03024 and 0.04118 and 0.0296
[3]; Day 3, second block
  Proliferation curve data for FIG. 6H (TTC1240): 0.2709 and 0.2793 and 0.2619
[3]; Day 5, first block
  Proliferation curve data for FIG. 6H (TTC1240): 0.05791 and 0.06311 and 0.0534
[3]; Day 5, second block
  Proliferation curve data for FIG. 6H (TTC1240): 0.9207 and 0.9419 and 0.9374
[3]; Day 7, first block
  Proliferation curve data for FIG. 6H (TTC1240): 0.1853 and 0.2336 and 0.1628
[3]; Day 7, second block
  Proliferation curve data for FIG. 6H (TTC1240): 2.184 and 2.334 and 2.133
[3]; TTC1240 (SMARCB1-deficient MRT), dBRD9 250 nM vs DMSO
  proliferation upon dBRD9 treatment: reduced proliferation
G401 MRT cells; Day 1, first block
  Proliferation curve data for FIG. 5K (G401): 0.04568 and 0.02188 and 0.02252
G401 MRT cells; Day 1, second block
  Proliferation curve data for FIG. 5K (G401): 0.1114 and 0.1126 and 0.1094
G401 MRT cells; Day 3, first block
  Proliferation curve data for FIG. 5K (G401): 0.1287 (2×) and 0.1558
G401 MRT cells; Day 3, second block
  Proliferation curve data for FIG. 5K (G401): 0.48 and 0.5096 and 0.442
G401 MRT cells; Day 5, first block
  Proliferation curve data for FIG. 5K (G401): 0.453 and 0.5533 and 0.4292
G401 MRT cells; Day 5, second block
  Proliferation curve data for FIG. 5K (G401): 1.005 and 1.058 and 0.9696
G401 MRT cells; Day 7, first block
  Proliferation curve data for FIG. 5K (G401): 0.7669 and 0.9773 and 0.8281
G401 MRT cells; Day 7, second block
  Proliferation curve data for FIG. 5K (G401): 1.468 and 1.621 and 1.556
G401 MRT cells; G401 (SMARCB1-deficient MRT), dBRD9 250 nM vs DMSO
  proliferation upon dBRD9 treatment: reduced proliferation
[4]; Day 0, second block
  cell count: 0.05
[4]; Day 1, first block
  cell count: 0.03089 and 0.03603 and 0.03282
[4]; Day 4, first block
  cell count: 0.1506 and 0.1319 and 0.1377
[4]; Day 4, second block
  cell count: 0.171 and 0.18 and 0.216
[4]; Day 6, first block
  cell count: 0.2722 and 0.3153 and 0.2555
[4]; Day 7, second block
  cell count: 0.36 (2×) and 0.42
[4]; Day 8, first block
  cell count: 0.5521 and 0.5701 and 0.5147
[4]; Day 10, second block
  cell count: 1.17 and 1.38 and 1.14
[4]; Day 13, second block
  cell count: 2.3 and 2.21 and 2.13
[4]; SYO-1, dBRD9 500 nM (FIG. 6F) vs DMSO
  cell proliferation upon dBRD9 treatment: attenuation of cell proliferation; also recorded: proliferative attenuation
SMARCA4 [5]
  SMARCA4 occupancy (ChIP-seq): significant decrease
[6]
  expression of genes closest to fusion-dependent sites: did not change
[7]
  expression of JUND, VGF, ID3, HOXC9, CREB3L1: significantly downregulated
[8]
  reduced proliferation upon dBRD9 treatment: did not
